Source: patent publication US12685726B2, “Sulfoximines as inhibitors of NaV1.8” (Gruenenthal GmbH, priority 2022, dated 2026)

Target: T1, human NaV 1.8 (Homo sapiens, UniProt Q9Y5Y9)
T1 construct: expressed in transfected cells; host or cells: HEK (recombinant cell line)
Test: Automated whole-cell patch clamp (Qube384) voltage-clamp recordings of sodium currents in HEK-NaV1.8 cell line
Assay type: cell-based
Settings: read-out: Potency category (human NaV 1.8 IC50)
Protocol: Electrophysiology: Voltage-Clamp Recordings
The following NaV1.8 recombinant cell line was used for recordings: HEK-NaV1.8 (NM_006514.1) with b3 (NM_018400.3).
Sodium currents were measured using the patch clamp technique in the whole-cell configuration using the Qube384 (Sophion A/S, Copenhagen, Denmark) automated voltage clamp platform. “Multi hole” plates were used for the cell line expressing NaV1.8 while “single hole” plates were used for the recombinant cell lines expressing the other subtypes. Appropriate filters (for minimum seal resistance and minimum current size) and series resistance compensation (for high quality sodium channel recordings) were applied. Data was collected at ambient room temperature or 19° C.
The recording extracellular solution contained (in mM): NaCl 145 mM, KCl 4 mM, CaCl2 2 mM, MgCl2 1 mM, HEPES 10 mM, Glucose 10 mM, pH 7.4 (NaOH). The intracellular recording solution contained (in mM): CsF 120 mM, CsCl 20 mM, NaCl 10 mM, EGTA 10 mM, HEPES 10 mM, pH 7.2 (CsOH). Currents were recorded at 25 kHz sampling frequency and filtered at 5 kHz. Series resistance compensation was applied at 65%.
Vehicle (VEH) is the control condition where cells are exposed to 0.3% DMSO without compound. All runs include VEH controls being exposed to the same voltage protocols to assess non-compound related phenomena such as run down and then used to isolate compound dependent effects on currents.
To check for state-dependent inhibition, the following voltage-sequence was applied every 20 seconds:
From a resting membrane potential of −120 mV, the first test pulse (P1; 20 ms to −10 mV) was applied to check for channels in the Resting State followed by a brief recovery (100 ms to −120 mV), then holding the membrane voltage to V1/2 (4 seconds at voltage to obtain half the channel at Rest and half Inactivated) with a subsequent second test pulse (P2; 20 ms to −10 mV) to check for channels in the Inactivated State, followed by another brief recovery (20 ms to −120 mV) and a final third test pulse (P3; 20 ms to −10 mV) to check for recovered channels.
To check for frequency-dependent inhibition, a 10 Hz protocol and a 20 Hz protocol were applied; namely,
From a resting membrane potential of −120 mV, 40-pulses (10 ms to −10 mV) was applied at 10 Hz (at 100 ms between pulses) and then at 20 Hz (at 50 ms between pulses).
Each parameter was recorded (P1, P2, P3, P40 from 10 Hz and P40 from 20 Hz) during a control period (lasting 5 minutes) when establishing the baseline and during compound period (lasting ~12 minutes) when test compound (or vehicle) was applied. For each parameter, the value at the end of the compound period was normalized to the vehicle baseline; as follows
To adjust for any variance in the Na^+ current signal during the compound period (owing to cumulative inactivation independent of compound or shifts in biophysics over time), a dedicated segment of the recording wells in each 384 plate were dedicated to having only vehicle exposure. These vehicle-only recordings were used to correct for any apparent “run-up” or “run-down” in the experiment.
The adjusted inhibition was calculated as follows: […]
Percent inhibition was determined and IC50 values were calculated using a 4 parameter logistic model within XLFit Software (IDBS, Boston MA): F
[formula] where A and B are the maximal and minimum inhibition respectively, C is the IC50 concentration and D is the (Hill) slope.

T1 sequence (Q9Y5Y9 whole entry): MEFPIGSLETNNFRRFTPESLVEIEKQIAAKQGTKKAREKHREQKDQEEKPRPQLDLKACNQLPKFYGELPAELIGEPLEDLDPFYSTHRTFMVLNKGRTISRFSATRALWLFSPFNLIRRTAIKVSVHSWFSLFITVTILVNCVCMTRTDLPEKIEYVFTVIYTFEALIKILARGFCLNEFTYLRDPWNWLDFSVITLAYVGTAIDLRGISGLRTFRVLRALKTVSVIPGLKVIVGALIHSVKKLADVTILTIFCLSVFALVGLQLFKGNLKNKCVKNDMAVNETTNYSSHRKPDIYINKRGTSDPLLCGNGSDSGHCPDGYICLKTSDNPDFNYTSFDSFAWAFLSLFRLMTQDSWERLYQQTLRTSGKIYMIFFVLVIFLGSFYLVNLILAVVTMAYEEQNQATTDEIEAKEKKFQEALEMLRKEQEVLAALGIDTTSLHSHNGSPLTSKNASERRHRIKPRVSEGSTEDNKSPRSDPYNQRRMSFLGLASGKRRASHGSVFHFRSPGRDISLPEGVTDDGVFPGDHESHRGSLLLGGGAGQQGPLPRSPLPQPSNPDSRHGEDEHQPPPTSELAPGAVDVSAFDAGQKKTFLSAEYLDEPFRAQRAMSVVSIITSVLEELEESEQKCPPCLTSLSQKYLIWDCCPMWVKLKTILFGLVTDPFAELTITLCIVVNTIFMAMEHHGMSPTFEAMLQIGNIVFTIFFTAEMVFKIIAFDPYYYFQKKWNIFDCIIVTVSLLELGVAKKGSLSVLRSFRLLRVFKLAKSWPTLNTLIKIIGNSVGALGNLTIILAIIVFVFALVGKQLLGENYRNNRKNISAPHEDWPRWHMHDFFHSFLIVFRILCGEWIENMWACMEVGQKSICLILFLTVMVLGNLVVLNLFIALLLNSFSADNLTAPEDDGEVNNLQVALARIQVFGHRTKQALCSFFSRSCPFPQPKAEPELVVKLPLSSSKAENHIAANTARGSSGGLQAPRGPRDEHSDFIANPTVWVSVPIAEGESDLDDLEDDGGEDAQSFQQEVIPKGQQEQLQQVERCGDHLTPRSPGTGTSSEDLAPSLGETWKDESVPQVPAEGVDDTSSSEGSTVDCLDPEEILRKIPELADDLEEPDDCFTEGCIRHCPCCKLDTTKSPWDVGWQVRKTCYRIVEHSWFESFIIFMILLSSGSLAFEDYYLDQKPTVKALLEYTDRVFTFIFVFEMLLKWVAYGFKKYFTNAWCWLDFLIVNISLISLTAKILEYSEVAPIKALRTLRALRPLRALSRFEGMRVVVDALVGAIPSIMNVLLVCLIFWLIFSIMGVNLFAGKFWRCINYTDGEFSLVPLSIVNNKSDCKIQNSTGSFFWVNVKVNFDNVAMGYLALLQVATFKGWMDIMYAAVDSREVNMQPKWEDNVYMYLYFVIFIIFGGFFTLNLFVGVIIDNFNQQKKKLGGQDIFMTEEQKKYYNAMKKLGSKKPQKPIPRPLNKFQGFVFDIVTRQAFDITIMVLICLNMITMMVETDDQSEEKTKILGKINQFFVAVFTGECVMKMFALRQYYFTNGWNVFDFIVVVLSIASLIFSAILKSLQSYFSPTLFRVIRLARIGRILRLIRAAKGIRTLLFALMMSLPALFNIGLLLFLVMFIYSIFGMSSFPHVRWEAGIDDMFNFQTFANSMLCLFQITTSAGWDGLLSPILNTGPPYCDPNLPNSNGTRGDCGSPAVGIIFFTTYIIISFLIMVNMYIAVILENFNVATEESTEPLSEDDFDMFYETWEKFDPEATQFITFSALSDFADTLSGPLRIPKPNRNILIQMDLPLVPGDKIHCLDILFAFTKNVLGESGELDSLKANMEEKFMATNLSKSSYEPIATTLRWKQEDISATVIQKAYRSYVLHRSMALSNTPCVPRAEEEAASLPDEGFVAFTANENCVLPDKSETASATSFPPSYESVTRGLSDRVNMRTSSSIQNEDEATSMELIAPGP

Row | IC50 [nM] | SMILES
1 | ≤ 100 | CS(=N)(=O)c1cc(NC(=O)c2c(C(F)(F)F)c(C3CC3)nn2C[C@H]2CCC(F)(F)C2)ccn1 (single isomer, unassigned) [Example 17b]
2 | ≤ 100 | CS(=N)(=O)c1cc(NC(=O)c2c(C(F)(F)F)c(C3CC3)nn2C[C@H]2CCC(F)(F)C2)ccn1 (single isomer, unassigned) [Example 17a]
3 | ≤ 100 | CC1(Cn2nc(C34CC(F)(C3)C4)c(C(F)F)c2C(=O)Nc2ccc(F)c(S(C)(=N)=O)c2)CC(F)(F)C1 (single isomer, unassigned) [Example 138b, 1-((3,3-Difluoro-1-methylcyclobutyl)methyl)-4-(difluoromethyl)-N-(4-fluoro-3-(S-methylsulfonimidoyl)phenyl)-3-(3-fluorobicyclo[1.1.1]pentan-1-yl)-1H-pyrazole-5-carboxamide]
4 | ≤ 100 | C[S@@](=N)(=O)c1cc(NC(=O)c2c(C(F)(F)F)c(C3CC3)nn2C[C@@H]2C(F)(F)C23CC3)ccn1 (single isomer, unassigned) [Example 79c, 3-cyclopropyl-1-((2,2-difluorospiro[2.2]pentan-1-yl)methyl)-N-(2-(S-methylsulfonimidoyl)pyridin-4-yl)-4-(trifluoromethyl)-1H-pyrazole-5-carboxamide]

Second part, the compound before the results:

Row | SMILES | IC50 [nM]
5 | CC1(Cn2nc(C(C)(C)F)c(C(F)(F)F)c2C(=O)Nc2ccnc(S(C)(=N)=O)c2)CC(F)(F)C1 (single isomer, unassigned) [Example 148a, 1-((3,3-Difluoro-1-methylcyclobutyl)methyl)-3-(2-fluoropropan-2-yl)-N-(2-(S-methylsulfonimidoyl)pyridin-4-yl)-4-(trifluoromethyl)-1H-pyrazole-5-carboxamide] | ≤ 100
6 | CS(=N)(=O)c1cc(NC(=O)c2c(C(F)(F)F)c(C3CC3)nn2CC23CC(F)(C2)C3)ccn1 (single isomer, unassigned) [Example 25a, 3-cyclopropyl-1-((3-fluorobicyclo[1.1.1]pentan-1-yl)methyl)-N-(2-(S-methylsulfonimidoyl)pyridin-4-yl)-4-(trifluoromethyl)-1H-pyrazole-5-carboxamide] | ≤ 100
7 | CS(=N)(=O)c1cc(NC(=O)c2c(C(F)(F)F)c(C3CC3)nn2CC2(F)CC3(CCC3)C2)ccn1 (single isomer, unassigned) [Example 21a, 3-cyclopropyl-1-((2-fluorospiro[3.3]heptan-2-yl)methyl)-N-(2-(S-methylsulfonimidoyl)pyridin-4-yl)-4-(trifluoromethyl)-1H-pyrazole-5-carboxamide] | ≤ 100
8 | CS(=N)(=O)c1cc(NC(=O)c2c(C(F)(F)F)c(C3CC3)nn2CC2C(F)(F)C23CCC3)ccn1 (single isomer, unassigned) [Example 136a, 3-Cyclopropyl-1-((2,2-difluorospiro[2.3]hexan-1-yl)methyl)-N-(2-(S-methylsulfonimidoyl)pyridin-4-yl)-4-(trifluoromethyl)-1H-pyrazole-5-carboxamide] | ≤ 100
9 | CC(F)(F)c1nn(CC2CC(F)(F)C2)c(C(=O)Nc2ccnc(S(C)(=N)=O)c2)c1C(F)(F)F (stereo not shown) [Example 3, 1-((3,3-Difluorocyclobutyl)methyl)-3-(1,1-difluoroethyl)-N-(2-(S-methylsulfonimidoyl)pyridin-4-yl)-4-(trifluoromethyl)-1H-pyrazole-5-carboxamide] | ≤ 100
10 | CC1(Cn2nc(C3CC34CC4)c(C(F)(F)F)c2C(=O)Nc2ccnc(S(C)(=N)=O)c2)CC(F)(F)C1 (single isomer, unassigned) [Example 64b, 1-((3,3-difluoro-1-methylcyclobutyl)methyl)-N-(2-(S-methylsulfonimidoyl)pyridin-4-yl)-3-(spiro[2.2]pentan-1-yl)-4-(trifluoromethyl)-1H-pyrazole-5-carboxamide] | ≤ 100
